For orientation: Kd means the concentration at which binding is half-saturated. Broadly, the Km is the substrate concentration at which the rate is half of its maximum. The term kcat denotes the number of substrate molecules converted per active site and unit of time at saturation. What is called kcat/Km is the second-order rate constant that governs catalysis at low substrate concentration.

Data set [1] concerns the target T1, Dld2 (D-lactate dehydrogenase 2) (Saccharomyces cerevisiae, UniProt P46681).
T1 construct: produced in Komagataella phaffii KM71H, purified
T1 sequence (P46681 1-530): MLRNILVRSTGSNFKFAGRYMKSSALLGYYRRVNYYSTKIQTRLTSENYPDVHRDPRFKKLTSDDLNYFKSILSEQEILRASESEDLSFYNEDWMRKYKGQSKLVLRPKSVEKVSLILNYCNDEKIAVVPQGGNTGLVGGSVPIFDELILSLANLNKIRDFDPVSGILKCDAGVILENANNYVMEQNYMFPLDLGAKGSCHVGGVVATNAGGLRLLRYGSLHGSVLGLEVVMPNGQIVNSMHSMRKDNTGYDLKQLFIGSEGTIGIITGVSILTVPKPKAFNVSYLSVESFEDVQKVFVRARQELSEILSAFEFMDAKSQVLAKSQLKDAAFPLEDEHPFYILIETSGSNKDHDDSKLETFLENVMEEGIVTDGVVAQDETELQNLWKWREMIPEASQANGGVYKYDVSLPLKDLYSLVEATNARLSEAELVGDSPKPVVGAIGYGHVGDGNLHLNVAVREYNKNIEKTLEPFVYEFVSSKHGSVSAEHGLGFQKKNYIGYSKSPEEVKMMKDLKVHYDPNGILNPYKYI
Kind of data set: stopped-flow flavin reduction, hyperbolic fit. In kind it is biochemical. Conditions: anaerobic reductive half reaction; 50 mM HEPES, 150 mM NaCl pH 7, 25 °C; 450 nm; fast (first) phase of reduction. The source says:
stopped-flow flavin reduction, hyperbolic fit on Dld2 (D-lactate dehydrogenase 2)

In data set [2] the target is T2, hETF (ETF from Homo sapiens) (Homo sapiens, UniProt P13804+P38117).
T2 construct: gene ETFA
T2 sequence (P13804 20-333): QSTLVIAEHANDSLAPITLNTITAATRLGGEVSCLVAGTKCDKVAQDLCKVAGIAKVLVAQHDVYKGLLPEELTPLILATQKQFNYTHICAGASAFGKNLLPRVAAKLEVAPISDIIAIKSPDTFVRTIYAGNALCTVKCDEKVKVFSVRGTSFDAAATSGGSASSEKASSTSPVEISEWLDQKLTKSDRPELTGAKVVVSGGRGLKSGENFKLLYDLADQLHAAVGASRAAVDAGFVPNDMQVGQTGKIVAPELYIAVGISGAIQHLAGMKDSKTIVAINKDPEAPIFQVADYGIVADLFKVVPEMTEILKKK
T2 sequence (P38117 2-255): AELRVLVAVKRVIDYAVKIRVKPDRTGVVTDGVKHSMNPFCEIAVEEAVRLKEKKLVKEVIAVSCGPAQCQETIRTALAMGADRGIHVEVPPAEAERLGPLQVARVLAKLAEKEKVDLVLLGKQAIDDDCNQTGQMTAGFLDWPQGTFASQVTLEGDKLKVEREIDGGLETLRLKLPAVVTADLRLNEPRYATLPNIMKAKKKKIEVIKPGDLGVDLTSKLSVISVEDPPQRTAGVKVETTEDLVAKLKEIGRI
Put plainly: UV-visible photoreduction of bound flavin. In kind it is binding. Conditions: co-purified cofactor; 50 mM HEPES pH 7, 1 mM DTT, anaerobic.

Data set [3] addresses T3, yETF (electron-transferring flavoprotein of Saccharomyces cerevisiae) (Saccharomyces cerevisiae, UniProt P42940+Q12480).
T3 construct: gene AIM45; heterodimer (alpha 38 kDa, beta 37 kDa), N-terminal hexahistidine tag on beta subunit (pETM11-His TEV), produced in E. coli Rosetta (DE3)-pLysS
T3 sequence (Q12480 15-344): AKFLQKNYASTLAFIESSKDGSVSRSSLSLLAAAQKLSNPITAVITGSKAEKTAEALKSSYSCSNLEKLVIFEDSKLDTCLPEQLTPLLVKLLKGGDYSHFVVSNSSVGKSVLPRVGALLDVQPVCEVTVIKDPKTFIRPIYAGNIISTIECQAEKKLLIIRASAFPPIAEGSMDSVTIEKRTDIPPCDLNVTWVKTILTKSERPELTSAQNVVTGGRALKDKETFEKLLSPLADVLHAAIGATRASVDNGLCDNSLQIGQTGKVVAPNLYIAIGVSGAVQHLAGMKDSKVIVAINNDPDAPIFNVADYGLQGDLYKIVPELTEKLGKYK
T3 sequence (P42940 1-261): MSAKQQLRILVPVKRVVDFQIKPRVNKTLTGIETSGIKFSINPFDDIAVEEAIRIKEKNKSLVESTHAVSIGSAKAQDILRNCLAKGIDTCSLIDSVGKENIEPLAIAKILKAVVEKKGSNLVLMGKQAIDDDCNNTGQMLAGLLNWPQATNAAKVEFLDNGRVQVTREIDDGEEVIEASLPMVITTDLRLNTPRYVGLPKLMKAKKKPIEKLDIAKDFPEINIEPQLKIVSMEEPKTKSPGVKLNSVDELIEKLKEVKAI
Put plainly: UV-visible spectrum, native vs SDS-denatured; HPLC-DAD. Conditions: co-purified cofactor; 50 mM HEPES pH 7, 1 mM DTT, 25 °C. Format: binding.

Data set [4] deals with T4, hETF (ETF from Homo sapiens) (Homo sapiens, UniProt P13804+P38117, P38117:Y16F).
T4 construct: gene ETFA
T4 sequence (P13804 20-333): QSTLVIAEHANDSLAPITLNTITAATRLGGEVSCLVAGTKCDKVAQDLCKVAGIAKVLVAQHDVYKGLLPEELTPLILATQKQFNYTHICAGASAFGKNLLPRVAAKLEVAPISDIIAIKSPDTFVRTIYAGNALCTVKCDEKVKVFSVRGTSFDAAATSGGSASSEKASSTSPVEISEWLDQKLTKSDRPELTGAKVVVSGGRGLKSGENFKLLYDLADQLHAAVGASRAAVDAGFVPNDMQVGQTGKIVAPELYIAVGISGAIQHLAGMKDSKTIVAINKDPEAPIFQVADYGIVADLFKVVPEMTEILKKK
T4 sequence (P38117 2-255 Y16F): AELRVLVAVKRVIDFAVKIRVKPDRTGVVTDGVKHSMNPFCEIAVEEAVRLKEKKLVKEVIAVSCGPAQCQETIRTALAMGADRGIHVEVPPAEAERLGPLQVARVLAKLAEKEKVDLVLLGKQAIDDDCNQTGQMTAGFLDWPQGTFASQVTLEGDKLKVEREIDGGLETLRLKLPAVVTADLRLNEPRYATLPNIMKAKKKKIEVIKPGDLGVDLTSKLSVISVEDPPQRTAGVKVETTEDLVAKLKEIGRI
Put plainly: UV-visible photoreduction of bound flavin. In kind it is binding. The note with it: co-purified cofactor; 50 mM HEPES pH 7, 1 mM DTT, anaerobic.

Substrate in the data set “purified protein”: O=C(O)CC[C@@H](O)C(=O)O
Put plainly: purified protein. In kind it is biochemical, Saccharomyces cerevisiae. The note with it: 125 µM 2,6-dichlorophenol indophenol as acceptor, aerobic, 50 mM HEPES, 150 mM NaCl pH 7, 25 °C, apparent.

In data set [1], `C[C@@H](O)C(=O)O` [D‐lactate] registered a Kd of 15 ± 1 mM.

Turning to `Cc1cc2nc3c(=O)[nH]c(=O)nc-3n(C[C@H](O)[C@H](O)[C@H](O)COP(=O)(O)OP(=O)(O)OC[C@H]3O[C@@H](n4cnc5c(N)ncnc54)[C@H](O)[C@@H]3O)c2cc1C` [FAD], the “UV-visible photoreduction of bound flavin” value in data set [2] was “hETF wild‐type (C), and hETF‐βTyr16Phe (D) in the course of the photoreduction: oxidized FAD”; in data set [4] it was “hETF‐βTyr16Phe (D) in the course of the photoreduction: oxidized FAD”. In addition, in data set [3], the “UV-visible spectrum, native vs SDS-denatured; HPLC-DAD” value was “absorption spectrum of denatured yETF further indicate the presence of an FAD chromophore”.

B1: Dld2 (D-lactate dehydrogenase 2) (Saccharomyces cerevisiae S288C) (protein)
chain: MLRNILVRSTGSNFKFAGRYMKSSALLGYYRRVNYYSTKIQTRLTSENYPDVHRDPRFKKLTSDDLNYFKSILSEQEILRASESEDLSFYNEDWMRKYKGQSKLVLRPKSVEKVSLILNYCNDEKIAVVPQGGNTGLVGGSVPIFDELILSLANLNKIRDFDPVSGILKCDAGVILENANNYVMEQNYMFPLDLGAKGSCHVGGVVATNAGGLRLLRYGSLHGSVLGLEVVMPNGQIVNSMHSMRKDNTGYDLKQLFIGSEGTIGIITGVSILTVPKPKAFNVSYLSVESFEDVQKVFVRARQELSEILSAFEFMDAKSQVLAKSQLKDAAFPLEDEHPFYILIETSGSNKDHDDSKLETFLENVMEEGIVTDGVVAQDETELQNLWKWREMIPEASQANGGVYKYDVSLPLKDLYSLVEATNARLSEAELVGDSPKPVVGAIGYGHVGDGNLHLNVAVREYNKNIEKTLEPFVYEFVSSKHGSVSAEHGLGFQKKNYIGYSKSPEEVKMMKDLKVHYDPNGILNPYKYI
notes: produced in Komagataella phaffii KM71H, purified
For B1, in “purified protein”, the Km turned out to be 0.35 ± 0.05 mM, the kcat was determined as 0.42 ± 0.02 s⁻¹ and the catalytic efficiency (kcat/Km) turned out to be 1200 ± 300 M⁻¹ s⁻¹.

For the origin of these results see publication PMC6771786, “Closing the gap: yeast electron‐transferring flavoprotein links the oxidation of D‐lactate and D‐α‐hydroxyglutarate to energy production via the respiratory chain” (The Febs Journal, 2019).
